From ChEMBL document CHEMBL1145407, “Structure-activity relationships of alpha-ketooxazole inhibitors of fatty acid amide hydrolase” (J Med Chem, 2007)

Columns and labels:
[1] = biological target: T1, Fatty-acid amide hydrolase 1 (Rattus norvegicus, UniProt P97612); assay: Inhibition of rat recombinant FAAH expressed in Escherichia coli
T1 sequence (P97612 whole entry): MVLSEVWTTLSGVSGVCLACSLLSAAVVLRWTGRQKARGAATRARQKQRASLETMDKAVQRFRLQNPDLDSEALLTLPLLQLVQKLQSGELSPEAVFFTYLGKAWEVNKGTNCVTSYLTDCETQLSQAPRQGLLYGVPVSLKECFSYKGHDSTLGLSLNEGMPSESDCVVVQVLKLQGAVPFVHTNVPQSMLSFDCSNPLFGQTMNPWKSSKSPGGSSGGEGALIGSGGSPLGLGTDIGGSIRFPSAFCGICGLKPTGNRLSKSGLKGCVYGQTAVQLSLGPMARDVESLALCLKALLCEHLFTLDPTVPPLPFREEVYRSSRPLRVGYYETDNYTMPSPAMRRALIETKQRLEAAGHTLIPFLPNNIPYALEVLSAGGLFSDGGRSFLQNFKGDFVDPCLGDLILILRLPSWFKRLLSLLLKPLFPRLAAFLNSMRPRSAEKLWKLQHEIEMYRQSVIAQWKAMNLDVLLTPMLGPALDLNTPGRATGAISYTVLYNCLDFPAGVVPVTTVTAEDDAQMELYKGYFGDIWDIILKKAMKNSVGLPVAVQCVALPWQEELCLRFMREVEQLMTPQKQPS

[2] = Selectivity for rat recombinant FAAH over KIAA1363
[3] = Selectivity for rat recombinant FAAH over TGH

Structure (SMILES) | Ki [1] [nM] | Ratio IC50 [2] | Ratio IC50 [3] | Selectivity ratio [2]
O=C(CCCCCCc1ccccc1F)c1ncc(-c2ccccn2)o1 | 1.7 | > 3300 | 17 | –
OC(CCCCCc1ccccc1)C(O)c1ncc(-c2ccccn2)o1 (centres undefined) | 2000 | – | – | –
O=C(CCCCCCc1cccnc1)c1ncc(-c2ccccn2)o1 | 32 | > 5000 | 50 | –
O=C(CCCCCCc1ccccc1C(F)(F)F)c1ncc(-c2ccccn2)o1 | 4 | > 3300 | 230 | –
O=C(C[S+]([O-])CCCCc1ccccc1)c1ncc(-c2ccccn2)o1 (centres undefined) | 1000 | – | – | –
O=C(CCOCCCc1ccccc1)c1ncc(-c2ccccn2)o1 | 90 | – | – | –
O=C(CCCCSCc1ccccc1)c1ncc(-c2ccccn2)o1 | 25 | – | – | –
CN(CCCc1ccccc1)CCC(=O)c1ncc(-c2ccccn2)o1 | 200 | – | – | –
O=C(CCCCCCc1cccc(C(F)(F)F)c1)c1ncc(-c2ccccn2)o1 | 1 | > 5000 | 10 | –
O=C(CCCC[S+]([O-])Cc1ccccc1)c1ncc(-c2ccccn2)o1 (centres undefined) | 2500 | – | – | –
CN(CCCCCC(=O)c1ncc(-c2ccccn2)o1)c1ccccc1 | 40 | – | – | –
O=C(CCCCOCc1ccccc1)c1ncc(-c2ccccn2)o1 | 55 | – | – | –
O=C(CCCCCCc1cccc(Cl)c1)c1ncc(-c2ccccn2)o1 | – | > 50000 | 250 | –
O=C(CCc1ccc(Nc2ccccc2)cc1)c1ncc(-c2ccccn2)o1 | – | > 20000 | 120 | –
O=C(COCCCCc1ccccc1)c1ncc(-c2ccccn2)o1 | 60 | > 58 | 34 | –
O=C(CCCCS(=O)(=O)Cc1ccccc1)c1ncc(-c2ccccn2)o1 | > 10000 | – | – | –
CCCCCCc1cccc(CCCCCCC(=O)c2ncc(-c3ccccn3)o2)c1 | 15 | – | 250 | > 1250
O=C(c1ncc(-c2ccccn2)o1)C1CCCC1 | 2500 | – | – | –
O=C(CCCCCCc1cccc2ccccc12)c1ncc(-c2ccccn2)o1 | – | > 10000 | 30 | –
O=C(CCCCCCc1ccccn1)c1ncc(-c2ccccn2)o1 | 120 | > 3300 | 33 | –
O=C(CCCCC(O)Cc1ccccc1)c1ncc(-c2ccccn2)o1 (centres undefined) | 200 | – | – | –
O=C(CCc1ccc(OCc2ccccc2)cc1)c1nc2ncccc2o1 | – | 7000 | 130 | –

Structure (SMILES) | Ki [1] [nM] | Ratio IC50 [2] | Ratio IC50 [3] | Selectivity ratio [2]
O=C(CS(=O)(=O)CCCCc1ccccc1)c1ncc(-c2ccccn2)o1 | 20000 | – | – | –
CS(=O)(=O)c1cccc(CCCCCCC(=O)c2ncc(-c3ccccn3)o2)c1 | 1.3 | > 25000 | 1000 | –
O=C(CCc1ccc(COc2ccccc2)cc1)c1ncc(-c2ccccn2)o1 | – | > 50000 | 1000 | –
O=C(CCc1ccc(Sc2ccccc2)cc1)c1ncc(-c2ccccn2)o1 | – | > 50000 | 30 | –
O=C(CCCOCCc1ccccc1)c1ncc(-c2ccccn2)o1 | 63 | – | – | –
O=C(CCc1cccc(OCc2ccccc2)c1)c1ncc(-c2ccccn2)o1 | – | > 1000 | 20 | –
COC(=O)CCC(=O)c1ncc(-c2ccccn2)o1 | > 100000 | – | – | –
O=C(CCCCCCc1ccsc1)c1ncc(-c2ccccn2)o1 | 5.1 | > 3300 | 27 | –
O=C(CSCCCCc1ccccc1)c1ncc(-c2ccccn2)o1 | 4 | – | – | –
O=C(CCCCCCc1cccs1)c1ncc(-c2ccccn2)o1 | 4.3 | > 5000 | 35 | –
O=C(CCC(=O)c1ncc(-c2ccccn2)o1)NCCc1ccccc1 | > 100000 | – | – | –
O=C(CC(O)CCCCc1ccccc1)c1ncc(-c2ccccn2)o1 (centres undefined) | 35 | – | – | –
O=C(c1ncc(-c2ccccn2)o1)C1CC1 | > 50000 | – | – | –
O=C(CCCC(O)CCc1ccccc1)c1ncc(-c2ccccn2)o1 (centres undefined) | 1500 | – | – | –
O=C(CCl)c1ncc(-c2ccccn2)o1 | 800 | – | – | –
O=C(CCCCCS(=O)(=O)c1ccccc1)c1ncc(-c2ccccn2)o1 | 6000 | – | – | –
CN(CCCC(=O)c1ncc(-c2ccccn2)o1)CCc1ccccc1 | 3500 | – | – | –
O=C(CCCCC[S+]([O-])c1ccccc1)c1ncc(-c2ccccn2)o1 (centres undefined) | 1000 | – | – | –
CN(CCCCc1ccccc1)CC(O)c1ncc(-c2ccccn2)o1 (centres undefined) | > 100000 | – | – | –
O=C(CCC(O)CCCc1ccccc1)c1ncc(-c2ccccn2)o1 (centres undefined) | 500 | – | – | –
O=C(CCc1ccc(Cc2ccccc2)cc1)c1ncc(-c2ccccn2)o1 | – | > 33000 | 300 | –
O=C(CCc1ccc(OCc2ccccc2)cc1)c1ncc(-c2ccccn2)o1 | – | > 100000 | 8000 | –

Now from value to compound:

Ki [1] [nM] | Ratio IC50 [2] | Ratio IC50 [3] | Selectivity ratio [2] | Structure (SMILES)
13 | – | – | – | O=C(CCCCC#Cc1ccccc1Cl)c1ncc(-c2ccccn2)o1
17 | – | – | – | O=C(CCCCC#Cc1ccccc1[N+](=O)[O-])c1ncc(-c2ccccn2)o1
16 | – | – | – | O=C(CCCCC#Cc1ccccc1C(F)(F)F)c1ncc(-c2ccccn2)o1
2.4 | – | – | – | CC(C)(C)OC(=O)Nc1cccc(CCCCCCC(=O)c2ncc(-c3ccccn3)o2)c1
20000 | – | – | – | O=C(CCCC(=O)c1ncc(-c2ccccn2)o1)NCc1ccccc1
2.7 | > 3300 | 67 | – | O=C(CCCCCCc1ccc(Cl)cc1)c1ncc(-c2ccccn2)o1
3.2 | – | – | – | O=C(CCCCC#Cc1cccc(F)c1)c1ncc(-c2ccccn2)o1
1800 | – | – | – | COC(=O)CCCCC(=O)c1ncc(-c2ccccn2)o1
3100 | – | – | – | O=C(CCCCC(=O)c1ncc(-c2ccccn2)o1)Nc1ccccc1
7000 | – | – | – | COC(=O)CCCC(=O)c1ncc(-c2ccccn2)o1
4.8 | – | – | – | O=C(CCCCC#Cc1cccc([N+](=O)[O-])c1)c1ncc(-c2ccccn2)o1
4 | > 10000 | 20 | – | O=C(CCCCCCc1ccc(C(F)(F)F)cc1)c1ncc(-c2ccccn2)o1
25 | – | – | – | COC(=O)c1ccc(C#CCCCCC(=O)c2ncc(-c3ccccn3)o2)cc1
2.5 | > 5000 | 50 | – | COc1cccc(CCCCCCC(=O)c2ncc(-c3ccccn3)o2)c1
5.8 | > 10000 | 500 | – | COc1ccccc1CCCCCCC(=O)c1ncc(-c2ccccn2)o1
> 600 | – | – | – | O=C(O)c1ccc(CCCCCCC(=O)c2ncc(-c3ccccn3)o2)cc1
8 | – | – | – | O=C(CCCCC#Cc1ccccc1F)c1ncc(-c2ccccn2)o1
5 | – | – | – | O=C(CCCCC#Cc1cccc(Cl)c1Cl)c1ncc(-c2ccccn2)o1
4.2 | > 10000 | 30 | – | CSc1cccc(CCCCCCC(=O)c2ncc(-c3ccccn3)o2)c1
3 | > 3300 | 100 | – | Cc1ccccc1CCCCCCC(=O)c1ncc(-c2ccccn2)o1
2.5 | > 5000 | 40 | – | CSc1ccc(CCCCCCC(=O)c2ncc(-c3ccccn3)o2)cc1
3.2 | > 5000 | 50 | – | O=C(CCCCCCc1ccc(F)cc1)c1ncc(-c2ccccn2)o1
31 | – | – | – | O=C(CCCCC#Cc1ccc([N+](=O)[O-])cc1)c1ncc(-c2ccccn2)o1
20 | – | – | – | O=C(CCCCC#Cc1ccc(Cl)cc1)c1ncc(-c2ccccn2)o1

Ki [1] [nM] | Ratio IC50 [2] | Ratio IC50 [3] | Selectivity ratio [2] | Structure (SMILES)
> 600 | – | – | – | O=C(O)c1cccc(CCCCCCC(=O)c2ncc(-c3ccccn3)o2)c1
6.5 | > 200000 | 100000 | – | O=C(CCCCCCc1ccc([N+](=O)[O-])cc1)c1ncc(-c2ccccn2)o1
36 | – | – | – | O=C(CCCCC#Cc1ccc(F)cc1)c1ncc(-c2ccccn2)o1
200 | – | – | – | CN(CCCCC(=O)c1ncc(-c2ccccn2)o1)Cc1ccccc1
5.6 | – | – | – | CC(C)(C)OC(=O)Nc1ccc(CCCCCCC(=O)c2ncc(-c3ccccn3)o2)cc1
3.3 | > 3300 | 170 | – | Cc1cccc(CCCCCCC(=O)c2ncc(-c3ccccn3)o2)c1
1.5 | > 400000 | 25000 | – | COC(=O)c1ccc(CCCCCCC(=O)c2ncc(-c3ccccn3)o2)cc1
19 | > 2000 | 40 | – | CS(=O)(=O)c1ccc(CCCCCCC(=O)c2ncc(-c3ccccn3)o2)cc1
> 600 | – | – | – | O=C(CCCCCCc1ccccc1C(=O)O)c1ncc(-c2ccccn2)o1
30 | – | – | – | Nc1cccc(CCCCCCC(=O)c2ncc(-c3ccccn3)o2)c1
150 | – | – | – | O=C(CCCCC#Cc1ccncc1)c1ncc(-c2ccccn2)o1
280 | – | – | – | O=C(CCCCC#Cc1ccccn1)c1ncc(-c2ccccn2)o1
35 | – | – | – | O=C(CCCCCC(O)c1ccccc1)c1ncc(-c2ccccn2)o1 (centres undefined)
> 2000 | – | – | – | O=C(CCCCc1ccccc1)CC(=O)c1ncc(-c2ccccn2)o1
23 | – | – | – | CC(C)(C)OC(=O)Nc1ccc(C#CCCCCC(=O)c2ncc(-c3ccccn3)o2)cc1
14 | – | – | – | O=C(CCCCCOc1ccccc1)c1ncc(-c2ccccn2)o1
300 | – | – | – | O=C(CCCCC#Cc1cccnc1)c1ncc(-c2ccccn2)o1
75 | – | – | – | O=C(CCCCC#Cc1ccc(C(F)(F)F)cc1)c1ncc(-c2ccccn2)o1
25 | – | – | – | O=C(CCCCC#Cc1ccccc1)c1ncc(-c2ccccn2)o1
10 | – | – | – | O=C(CCCCC#Cc1cccc(C(F)(F)F)c1)c1ncc(-c2ccccn2)o1
30 | – | – | – | COC(=O)c1cccc(C#CCCCCC(=O)c2ncc(-c3ccccn3)o2)c1
12 | – | – | – | CC(C)(C)OC(=O)Nc1cccc(C#CCCCCC(=O)c2ncc(-c3ccccn3)o2)c1
7 | – | – | – | O=C(CCCCC#Cc1cccc(Cl)c1)c1ncc(-c2ccccn2)o1
